≈ marks a conversion by molar mass, not a printed value.

In this assay the test system is Radical scavenging activity. As to the kind of experiment: Antioxidant activity assessed as DPPH radical scavenging activity after 30 mins. Type of assay: functional. (Loss of DPPH colour is used to gauge radical scavenging.)
Consider `O=C1/C(=C(/C(=C2\Oc3cc(O)ccc3C2=O)c2ccc(O)c(O)c2)c2ccc(O)c(O)c2)Oc2cc(O)ccc21`, for which the IC50 (as a rule, the concentration needed to halve the response being measured) stood at 9.7 µg/mL (≈ 18 µM).

With `O=C(O)c1cc(O)c(O)c(O)c1` [GALLIC ACID], the IC50 came out at 10 µg/mL (≈ 58.8 µM).

In the case of `O=C1/C(=C/c2ccc(O)c(O)c2)Oc2cc(O[C@@H]3O[C@H](CO)[C@@H](O)[C@H](O)[C@H]3O)ccc21` [SULFUREIN], the IC50 was 18.7 µg/mL (≈ 43.2 µM).

Consider `O=C(OC[C@H]1O[C@@H](OC(=O)c2cc(O)c(O)c(O)c2)[C@H](OC(=O)c2cc(O)c(O)c(O)c2)[C@@H](OC(=O)c2cc(O)c(O)c(O)c2)[C@@H]1OC(=O)c1cc(O)c(O)c(O)c1)c1cc(O)c(O)c(O)c1` [PENTAGALLOYL GLUCOSE], for which the half-inhibitory concentration (IC50) is 12.6 µg/mL (≈ 13.4 µM).

Turning to `O=C1/C(=C/c2ccc(O)c(O)c2)Oc2cc(O)ccc21` [SULFURETIN], the IC50 was determined as 16.1 µg/mL (≈ 59.6 µM).

As for `COC(=O)c1cc(O)c(O)c(O)c1` [GALLIC ACID METHYL ESTER], the 50% inhibitory concentration (IC50) amounted to 18.6 µg/mL (≈ 101 µM).

Take `O=C1O[C@H]([C@@H](O)CO)C(O)=C1O` [ASCORBIC ACID]: the half-maximal inhibitory concentration (IC50) was 22 µg/mL (≈ 125 µM).

Turning to `COc1ccc(O)c(C(C)(C)C)c1.COc1ccc(O)cc1C(C)(C)C` [BUTYLATED HYDROXYANISOLE], the half-inhibitory concentration (IC50) was determined as 21 µg/mL.

The record behind these values is ChEMBL document CHEMBL1154991, “Activity-guided isolation of antioxidative constituents of Cotinus coggygria” (J Nat Prod, 2000).
